In patent US8846570B2, “Herbicidal compositions comprising 4-amino-3-chloro-5-fluoro-6-(4-chloro-2-fluoro-3-methoxyphenyl)pyridine-2-carboxylic acid or a derivative thereof and microtubule inhibiting herbicides” (Dow AgroSciences LLC, priority 2012, dated 2014):

Assays:
Experiment in all cases: Postemergence foliar-applied, cereal crops, greenhouse: visual weed control
Assay type in all cases: in vivo
Conditions in all cases: 21 DAA
[1] = tested on: Amaranthus retroflexus L. (AMARE)
Protocol: (§1) Seeds of the desired test plant species were planted in Sun Gro MetroMix® 306 planting mixture, which typically has a pH of 6.0 to 6.8 and an organic matter content of about 30 percent, in plastic pots with a surface area of 103.2 square centimeters (cm^2). When required to ensure good germination and healthy plants, a fungicide treatment and/or other chemical or physical treatment was applied. The plants were grown for 7-36 days in a greenhouse with an approximate 14 hour photoperiod which was maintained at about 18° C. during the day and about 17° C. during the night. Nutrients and water were added on a regular basis and supplemental lighting was provided with overhead metal halide 1000-Watt lamps as necessary. The plants were employed for testing when they reached the second or third true leaf stage.
(§2) Treatments consisted of the benzyl ester of 4-amino-3-chloro-5-fluoro-6-(4-chloro-2-fluoro-3-methoxy-phenyl)pyridine-2-carboxylic acid (Compound A), formulated as an SC, a second cereal herbicide alone and then both in combination.
(§3) Other herbicidal components were applied on an active ingredient basis and included microtubule-inhibiting herbicides.
(§4) Measured aliquots of benzyl ester of 4-amino-3-chloro-5-fluoro-6-(4-chloro-2-fluoro-3-methoxy-phenyl)pyridine-2-carboxylic acid (Compound A) were placed in 25 milliliter (mL) glass vials and diluted in a volume of 1.25% (v/v) Agri-Dex® crop oil concentrate to obtain stock solutions. Compound requirements are based upon a 12 mL application volume at a rate of 187 liters per hectare (L/ha). Spray solutions of the second cereal herbicide and experimental compound mixtures were prepared by adding the stock solutions to the appropriate amount of dilution solution to form 12 mL spray solution with active ingredients in two- and three-way combinations. Formulated compounds were applied to the plant material with an overhead Mandel track sprayer equipped with an 8002E nozzle calibrated to deliver 187 L/ha over an application area of 0.503 square meters (m^2) at a spray height of 18 inches (46 cm) above average plant canopy. Control plants were sprayed in the same manner with the solvent blank.
(§5) The treated plants and control plants were placed in a greenhouse as described above and watered by sub-irrigation to prevent wash-off of the test compounds. After 20-22 days, the condition of the test plants as compared with that of the control plants was determined visually and scored on a scale of 0 to 100 percent where 0 corresponds to no injury and 100 corresponds to complete kill.
(§6) Colby's equation was used to determine the herbicidal effects expected from the mixtures (Colby, S. R. 1967. Calculation of the synergistic and antagonistic response of herbicide combinations. Weeds 15:20-22.).
(§7) The following equation was used to calculate the expected activity of mixtures containing two active ingredients, A and B: Expected=A+B−(A×B/100)

[2] = tested on: Chenopodium album L. (CHEAL)
Protocol: as §1, §2, §3, §4, §5, §6, §7

[3] = tested on: Cirsium arvense (L.) Scop. (CIRAR)
Protocol: as §1, §2, §3, §4, §5, §6, §7

[4] = tested on: Kochia scoparia (L.) Schrad. (KCHSC)
Protocol: as §1, §2, §3, §4, §5, §6, §7

[5] = tested on: Lamium purpureum L. (LAMPU)
Protocol: as §1, §2, §3, §4, §5, §6, §7

[6] = tested on: Papaver rhoeas L. (PAPRH)
Protocol: as §1, §2, §3, §4, §5, §6, §7

[7] = tested on: Sinapis arvensis L. (SINAR)
Protocol: as §1, §2, §3, §4, §5, §6, §7

[8] = tested on: Stellaria media (L.) Vill. (STEME)
Protocol: as §1, §2, §3, §4, §5, §6, §7

COc1c(Cl)ccc(-c2nc(C(=O)OCc3ccccc3)c(Cl)c(N)c2F)c1F [Compound A Benzyl Ester, benzyl ester of 4-amino-3-chloro-5-fluoro-6-(4-chloro-2-fluoro-3-methoxy-phenyl)pyridine-2-carboxylic acid]
Visual Weed Control (%) Obs ([1]; 2.5 g ai/ha): 20% | Visual Weed Control (%) Obs ([1]; 5 g ai/ha): 38% | Visual Weed Control (%) Obs ([2]; 2.5 g ai/ha): 50% | Visual Weed Control (%) Obs ([2]; 5 g ai/ha): 58% | Visual Weed Control (%) Obs ([3]; 2.5 g ai/ha): 48% | Visual Weed Control (%) Obs ([3]; 5 g ai/ha): 39% | Visual Weed Control (%) Obs ([3]; 10 g ai/ha): 60% | Visual Weed Control (%) Obs ([4]; 2.5 g ai/ha): 20% | Visual Weed Control (%) Obs ([4]; 5 g ai/ha): 41% | Visual Weed Control (%) Obs ([4]; 10 g ai/ha): 62% | Visual Weed Control (%) Obs ([5]; 2.5 g ai/ha): 80% | Visual Weed Control (%) Obs ([5]; 5 g ai/ha): 86% | Visual Weed Control (%) Obs ([5]; 10 g ai/ha): 94% | Visual Weed Control (%) Obs ([6]; 2.5 g ai/ha): 48% | Visual Weed Control (%) Obs ([6]; 5 g ai/ha): 28% | Visual Weed Control (%) Obs ([6]; 10 g ai/ha): 35% | Visual Weed Control (%) Obs ([7]; 2.5 g ai/ha): 70% | Visual Weed Control (%) Obs ([7]; 5 g ai/ha): 73% | Visual Weed Control (%) Obs ([8]; 2.5 g ai/ha): 25% | Visual Weed Control (%) Obs ([8]; 5 g ai/ha): 25% | Visual Weed Control (%) Obs ([8]; 10 g ai/ha): 27%

CCC(CC)Nc1c([N+](=O)[O-])cc(C)c(C)c1[N+](=O)[O-] [Pendimethalin, N-(1-ethylpropyl)-3,4-dimethyl-2,6-dinitrobenzenamine, reference compound]
Visual Weed Control (%) Obs ([1]; 150 g ai/ha): 3% | Visual Weed Control (%) Obs ([1]; 300 g ai/ha): 5% | Visual Weed Control (%) Obs ([2]; 150 g ai/ha): 0% | Visual Weed Control (%) Obs ([2]; 300 g ai/ha): 0% | Visual Weed Control (%) Obs ([3]; 150 g ai/ha): 10% | Visual Weed Control (%) Obs ([3]; 300 g ai/ha): 10% | Visual Weed Control (%) Obs ([3]; 600 g ai/ha): 10% | Visual Weed Control (%) Obs ([4]; 150 g ai/ha): 10% | Visual Weed Control (%) Obs ([4]; 300 g ai/ha): 10% | Visual Weed Control (%) Obs ([4]; 600 g ai/ha): 57% | Visual Weed Control (%) Obs ([5]; 150 g ai/ha): 0% | Visual Weed Control (%) Obs ([5]; 300 g ai/ha): 25% | Visual Weed Control (%) Obs ([5]; 600 g ai/ha): 53% | Visual Weed Control (%) Obs ([6]; 150 g ai/ha): 18% | Visual Weed Control (%) Obs ([6]; 300 g ai/ha): 38% | Visual Weed Control (%) Obs ([6]; 600 g ai/ha): 75% | Visual Weed Control (%) Obs ([7]; 150 g ai/ha): 3% | Visual Weed Control (%) Obs ([7]; 300 g ai/ha): 5% | Visual Weed Control (%) Obs ([8]; 150 g ai/ha): 3% | Visual Weed Control (%) Obs ([8]; 300 g ai/ha): 5% | Visual Weed Control (%) Obs ([8]; 600 g ai/ha): 17%
